In patent US20080063668A1, “Nitroimidazole and terconazole composition and method” (priority 2006, published 2008):

Assays:
Test in all cases: Inhibition of bacteria growth, drug dilution tubes, anaerobic
Format in all cases: cell-based
Design in all cases: key: (+) for growth; (−) for no growth; (±) for suboptimal growth after an initial observation of growth
[1] = tested on: Gardnerella vaginalis ATCC 14018
Procedure: (§1) Serial dilutions of tinidazole and terconazole were prepared by adding measured amounts of each substance to water (both individually and in combination). Seven bacterial organisms that are common pathogens in bacterial vaginosis were grown anaerobically in the medium as listed in Table 4 under a N2/H2/CO2 (85:5:10) head space atmosphere. [table] These cultures were diluted to a 0.5 McFarland standard prior to inoculation of drug dilution tubes. One (1) mL of the 0.5 McFarland preparation was inoculated to an anaerobically prepared test tube containing 0.8 mL of Difco anaerobic medium (DAMM) and 0.2 mL of appropriate diluted antimicrobial or antimicrobial combination for a total of 2 mL. The inoculated tubes were then incubated at 37° C. and monitored daily for growth. Growth was scored with a (+) for growth, (−) for no growth, and (±) for suboptimal growth after an initial observation of growth. Tinidazole is abbreviated as TNZ and terconazole is abbreviated as TER in Tables 5 through 11.

[2] = tested on: Mobiluncus curtisii var. holmesii ATCC 35242
Procedure: as §1

[3] = tested on: Bacteroides fragilis ATCC 25285
Procedure: as §1

## CC(C)N1CCN(c2ccc(OCC3COC(Cn4cncn4)(c4ccc(Cl)cc4Cl)O3)cc2)CC1 (stereo not drawn) [TER, cis-1-[p[[2-(2,4-dichlorophenyl)-2-(1 H-1,2,4-triazol-1-ylmethyl)-1,3-dioxolan-4-yl]methoxy]phenyl]-4-isopropylpiperazine]
[1]; TER 3.1 μg/ml, DAY 1
  growth: (+)
[1]; TER 3.1 μg/ml, DAY 2
  growth: (+)
[1]; TER 3.1 μg/ml, DAY 3
  growth: (+)
[1]; TER 3.1 μg/ml, DAY 4
  growth: (+)
[1]; TER 3.1 μg/ml, DAY 5
  growth: (+)
[1]; TER 6.2 μg/ml, DAY 1
  growth: (+)
[1]; TER 6.2 μg/ml, DAY 2
  growth: (+)
[1]; TER 6.2 μg/ml, DAY 3
  growth: (+)
[1]; TER 6.2 μg/ml, DAY 4
  growth: (+)
[1]; TER 6.2 μg/ml, DAY 5
  growth: (+)
[1]; TER 12.5 μg/ml, DAY 1
  growth: (+)
[1]; TER 12.5 μg/ml, DAY 2
  growth: (+)
[1]; TER 12.5 μg/ml, DAY 3
  growth: (+)
[1]; TER 12.5 μg/ml, DAY 4
  growth: (+)
[1]; TER 12.5 μg/ml, DAY 5
  growth: (+)
[1]; TER 25 μg/ml, DAY 1
  growth: (+)
[1]; TER 25 μg/ml, DAY 2
  growth: (+)
[1]; TER 25 μg/ml, DAY 3
  growth: (+)
[1]; TER 25 μg/ml, DAY 4
  growth: (+)
[1]; TER 25 μg/ml, DAY 5
  growth: (+)
[1]; TER 50 μg/ml, DAY 1
  growth: (+)
[1]; TER 50 μg/ml, DAY 2
  growth: (+)
[1]; TER 50 μg/ml, DAY 3
  growth: (+)
[1]; TER 50 μg/ml, DAY 4
  growth: (+)
[1]; TER 50 μg/ml, DAY 5
  growth: (+)
[1]; TER 100 μg/ml, DAY 1
  growth: (+)
[1]; TER 100 μg/ml, DAY 2
  growth: (+)
[1]; TER 100 μg/ml, DAY 3
  growth: (+)
[1]; TER 100 μg/ml, DAY 4
  growth: (+)
[1]; TER 100 μg/ml, DAY 5
  growth: (+)
[1]; TER 200 μg/ml, DAY 1
  growth: (−)
[1]; TER 200 μg/ml, DAY 2
  growth: (+)
[1]; TER 200 μg/ml, DAY 3
  growth: (+)
[1]; TER 200 μg/ml, DAY 4
  growth: (+)
[1]; TER 200 μg/ml, DAY 5
  growth: (+)
[1]; TER 400 μg/ml, DAY 1
  growth: (−)
[1]; TER 400 μg/ml, DAY 2
  growth: (−)
[1]; TER 400 μg/ml, DAY 3
  growth: (−)
[1]; TER 400 μg/ml, DAY 4
  growth: (−)
[1]; TER 400 μg/ml, DAY 5
  growth: (−)
[1]; TER 800 μg/ml, DAY 1
  growth: (−)
[1]; TER 800 μg/ml, DAY 2
  growth: (−)
[1]; TER 800 μg/ml, DAY 3
  growth: (−)
[1]; TER 800 μg/ml, DAY 4
  growth: (−)
[1]; TER 800 μg/ml, DAY 5
  growth: (−)
[2]; TER 3.1 μg/ml, DAY 1
  growth: (+)
[2]; TER 3.1 μg/ml, DAY 2
  growth: (+)
[2]; TER 3.1 μg/ml, DAY 3
  growth: (+)
[2]; TER 3.1 μg/ml, DAY 4
  growth: (+)
[2]; TER 3.1 μg/ml, DAY 5
  growth: (+)
[2]; TER 6.2 μg/ml, DAY 1
  growth: (+)
[2]; TER 6.2 μg/ml, DAY 2
  growth: (+)
[2]; TER 6.2 μg/ml, DAY 3
  growth: (+)
[2]; TER 6.2 μg/ml, DAY 4
  growth: (+)
[2]; TER 6.2 μg/ml, DAY 5
  growth: (+)
[2]; TER 12.5 μg/ml, DAY 1
  growth: (+)
[2]; TER 12.5 μg/ml, DAY 2
  growth: (+)
[2]; TER 12.5 μg/ml, DAY 3
  growth: (+)
[2]; TER 12.5 μg/ml, DAY 4
  growth: (+)
[2]; TER 12.5 μg/ml, DAY 5
  growth: (+)
[2]; TER 25 μg/ml, DAY 1
  growth: (+)
[2]; TER 25 μg/ml, DAY 2
  growth: (+)
[2]; TER 25 μg/ml, DAY 3
  growth: (+)
[2]; TER 25 μg/ml, DAY 4
  growth: (+)
[2]; TER 25 μg/ml, DAY 5
  growth: (+)
[2]; TER 50 μg/ml, DAY 1
  growth: (+)
[2]; TER 50 μg/ml, DAY 2
  growth: (+)
[2]; TER 50 μg/ml, DAY 3
  growth: (+)
[2]; TER 50 μg/ml, DAY 4
  growth: (+)
[2]; TER 50 μg/ml, DAY 5
  growth: (+)
[2]; TER 100 μg/ml, DAY 1
  growth: (+)
[2]; TER 100 μg/ml, DAY 2
  growth: (+)
[2]; TER 100 μg/ml, DAY 3
  growth: (+)
[2]; TER 100 μg/ml, DAY 4
  growth: (+)
[2]; TER 100 μg/ml, DAY 5
  growth: (+)
[2]; TER 200 μg/ml, DAY 1
  growth: (+)
[2]; TER 200 μg/ml, DAY 5
  growth: (+)
[2]; TER 400 μg/ml, DAY 1
  growth: (+)
[2]; TER 400 μg/ml, DAY 5
  growth: (+)
[2]; TER 800 μg/ml, DAY 1
  growth: (+)
[2]; TER 800 μg/ml, DAY 5
  growth: (+)
[3]; TER 3.1 μg/ml, DAY 1
  growth: (+)
[3]; TER 3.1 μg/ml, DAY 2
  growth: (+)
[3]; TER 3.1 μg/ml, DAY 3
  growth: (+)
[3]; TER 3.1 μg/ml, DAY 4
  growth: (+)
[3]; TER 3.1 μg/ml, DAY 5
  growth: (+)
[3]; TER 6.2 μg/ml, DAY 1
  growth: (+)
[3]; TER 6.2 μg/ml, DAY 2
  growth: (+)
[3]; TER 6.2 μg/ml, DAY 3
  growth: (+)
[3]; TER 6.2 μg/ml, DAY 4
  growth: (+)
[3]; TER 6.2 μg/ml, DAY 5
  growth: (+)
[3]; TER 12.5 μg/ml, DAY 1
  growth: (+)
[3]; TER 12.5 μg/ml, DAY 2
  growth: (+)
[3]; TER 12.5 μg/ml, DAY 3
  growth: (+)
[3]; TER 12.5 μg/ml, DAY 4
  growth: (+)
[3]; TER 12.5 μg/ml, DAY 5
  growth: (+)
[3]; TER 25 μg/ml, DAY 1
  growth: (+)
[3]; TER 25 μg/ml, DAY 2
  growth: (+)
[3]; TER 25 μg/ml, DAY 3
  growth: (+)
[3]; TER 25 μg/ml, DAY 4
  growth: (+)
[3]; TER 25 μg/ml, DAY 5
  growth: (+)
[3]; TER 50 μg/ml, DAY 1
  growth: (+)
[3]; TER 50 μg/ml, DAY 2
  growth: (+)
[3]; TER 50 μg/ml, DAY 3
  growth: (+)
[3]; TER 50 μg/ml, DAY 4
  growth: (+)
[3]; TER 50 μg/ml, DAY 5
  growth: (+)
[3]; TER 100 μg/ml, DAY 1
  growth: (+)
[3]; TER 100 μg/ml, DAY 2
  growth: (+)
[3]; TER 100 μg/ml, DAY 3
  growth: (+)
[3]; TER 100 μg/ml, DAY 4
  growth: (+)
[3]; TER 100 μg/ml, DAY 5
  growth: (+)
[3]; TER 200 μg/ml, DAY 1
  growth: (−)
[3]; TER 200 μg/ml, DAY 2
  growth: (−)
[3]; TER 200 μg/ml, DAY 3
  growth: (+)
[3]; TER 200 μg/ml, DAY 4
  growth: (+)
[3]; TER 200 μg/ml, DAY 5
  growth: (+)
[3]; TER 400 μg/ml, DAY 1
  growth: (−)
[3]; TER 400 μg/ml, DAY 2
  growth: (−)
[3]; TER 400 μg/ml, DAY 3
  growth: (−)
[3]; TER 400 μg/ml, DAY 4
  growth: (−)
[3]; TER 400 μg/ml, DAY 5
  growth: (−)
[3]; TER 800 μg/ml, DAY 1
  growth: (−)
[3]; TER 800 μg/ml, DAY 2
  growth: (−)
[3]; TER 800 μg/ml, DAY 3
  growth: (−)
[3]; TER 800 μg/ml, DAY 4
  growth: (−)
[3]; TER 800 μg/ml, DAY 5
  growth: (−)
